Assay results reported in paper PMC7403980, “Anti-Inflammatory Effects of the Novel PIM Kinase Inhibitor KMU-470 in RAW 264.7 Cells through the TLR4-NF-κB-NLRP3 Pathway” (International Journal of Molecular Sciences, 2020).

What was measured:
pro-caspase-1 = assay: Pro-caspase-1 protein expression in LPS-treated RAW 264.7 cells (Western blot); assay type: cell-based, murine; conditions: KMU-470 0.1, 0.5, 1 μM 30 min, LPS 50 ng/mL 6 h
Experimental: Figure 6 Inhibitory effect of KMU-470 on LPS-induced up-regulation of pro-inflammatory cytokines and activation of NLRP3 inflammasome in RAW 264.7 cells. (A–C) Cells were treated with KMU-470 for 30 min and stimulated with LPS 50 ng/mL for 6 h. The levels of IL-1β, TNF-α, and IL-6 were determined using real time PCR. *** p < 0.001, *p < 0.05. (D) Cells were pre-treated with 0.1, 0.5, and 1 μM of KMU-470 for 30 min and treated with LPS 50 ng/mL for 6 h, respectively. Whole cell lysates were isolated and used to measure the protein expression levels of pro-IL-1β and β-actin by Western blot analysis. (E) Cells were pre-treated with 0.1, 0.5, and 1 μM of KMU-470 for 30 min and treated with LPS 50 ng/mL for 6 h, respectively. Whole cell lysates were isolated and used to measure the protein expression levels of […], ASC, pro-caspase-1, pro-IL-1β, and β-actin by Western blot analysis.
RAW 264.7 cells were pre-treated with KMU-470 (0.5–1 μM/mL) for 24 h and stimulated with LPS (50 ng/mL) for 6 h. […] Immunoreactive proteins were detected using the ELC Western blot detection system kit (Millipore). Signal intensity was measured using the Chemi Image documentation system (Fusion Fx7, VILBER LOUTMAT). Protein expression levels were quantified using the Image J program.

MyD88 = assay: LPS-induced MyD88 protein expression in RAW 264.7 cells (Western blot); assay type: cell-based, murine; conditions: KMU-470 0.5 and 1 μM 30 min, LPS 6 h
Experimental: Figure 4 Inhibitory effect of KMU-470 on LPS-induced TLR4 and MyD88 protein expression in RAW 264.7 cells. (A,B) Cells were pre-treated with 0.5 and 1 μM of KMU-470 for 30 min prior to LPS treatment. Then, total protein was isolated after 6 h exposure to LPS. The protein expression level of TLR4 and MyD88 were assessed using Western blot analysis. (C,D) The relative optical densities of TLR4 and MyD88 bands were analyzed by the Image-J program. *** p < 0.001.
RAW 264.7 cells were pre-treated with KMU-470 (0.5–1 μM/mL) for 24 h and stimulated with LPS (50 ng/mL) for 6 h. After stimulation, total cells were harvested, washed with PBS buffer, and then the total protein was extracted with a RIPA buffer (0.1 mM sodium orthovanadate, 137 mM NaCl, 15 mM EGTA, 0.1% Triton X-100, 25 mM MOPS, 15 mM MgCl2, 100 μM phenylmethylsulfonyl fluoride, and 20 μM leupeptin, adjusted to pH 7.2). The cell culture media supernatants were precipitated using TCA (trichloroacetic acid, protocol by Luis Sanchez 2001). A BCA protein assay kit (Thermo Scientific, Wilmington, USA) was used for the determination of the protein concentration. […] Immunoreactive proteins were detected using the ELC Western blot detection system kit (Millipore). Signal intensity was measured using the Chemi Image documentation system (Fusion Fx7, VILBER LOUTMAT). Protein expression levels were quantified using the Image J program.

CN(C)CCNc1cncc(-c2ccc3c(c2)/C(=C/c2cnc[nH]2)C(=O)N3)n1 [KMU-470, (Z)-3-((1H-Imidazol-5-yl)methylene)-5-(6-((2-(dimethylamino)ethyl)amino)pyrazin-2-yl)indolin-2-one]
Pro-caspase-1 expression (pro-caspase-1): not changed
Up-regulation of MyD88 protein by LPS (MyD88): suppressed
